# According to US20120283283A1, “METHODS FOR DETECTING ENHANCED RISK OF OPIOID-INDUCED HYPOXIA IN A PATIENT” (priority 2011, published 2012):
# Test system: patients with moderate to severe postoperative pain following bunionectomy surgery
# Experiment: Three double blind, randomized clinical studies (007, 008, 021): oxygen desaturation (SpO2<90%) by pulse oximetry during 48 hour treatment
# Settings: for median number of episodes of SpO2<90%: patients who experienced oxygen desaturation
# Experimental: Oxygen saturation was measured continuously during baseline and the 48 hour treatment periods using pulse oximetry. The total number and percentage of patients with oxygen desaturation (SpO2<90%) were recorded at: 0, 15, 30 and 45 minutes, and 1, 2, 3, 4, 5, 6 and 8 hours after study drug administration; at the time of administration of subsequent doses of study medication; at the time of administration of supplemental analgesic medication; 1 hour after administration of study medication; and whenever a desaturation occurred during the dosing period.
# Respiration rate (<10 breaths/min, 10-12 breaths/min, >12 breaths/min) was summarized at the same time points as the SpO2 recordings. Cumulative MED was determined at the time of the first episode of SpO2<90%. All desaturations and use of supplemental oxygenation, use of narcotic antagonists against respiratory impairment, and respiratory related serious adverse events (SAEs) were recorded.
# In subjects with oxygen desaturation the following data was recorded: cumulative MED at first desaturation; mean desaturation values; number of desaturation episodes; and total duration of desaturation episodes.
# Some patients in the three clinical studies were enrolled who resided near study sites that are located at an altitude of about or over 4000 feet above sea level.
smiles,measurement,setting,value
"CN1CC[C@]23c4c5ccc(O)c4O[C@H]2[C@@H](O)C=C[C@H]3[C@H]1C5.O=S(=O)(O)O [morphine, morphine sulfate]",median number of episodes of SpO2<90%,,2.0
"COc1ccc2c3c1O[C@H]1C(=O)CC[C@@]4(O)[C@@H](C2)N(C)CC[C@]314.Cl [oxycodone, oxycodone hydrochloride]",incidence of desaturation (SpO2<90%),"12 mg MED, lower elevation / non-high altitude sites",1.6%
same,cumulative dose before experiencing an oxygen desaturation event (SpO2<90%),cumulative MED at first desaturation,24 mg
same,incidence of desaturation at high elevation site compared to lower sites,morphine or oxycodone alone,ten-fold greater
same,median number of episodes of SpO2<90%,,2.0
